The source of these data is patent US20250064789A1, “KETOAMIDE DERIVATIVES AND PHARMACEUTICAL USES THEREOF” (priority 2022, published 2025).

For the experiment, the target named is recombinant SARS-CoV-2 M^pro (Severe acute respiratory syndrome coronavirus 2 (2019-nCoV) (SARS-CoV-2), UniProt P0DTD1). Nature of the experiment: Inhibition of SARS-CoV-2 M^pro enzyme activity (fluorescent substrate assay). The experiment is classed as biochemical. The conditions noted are these: inhibition of SARS-CoV-2 M^pro enzyme activity, read-out: IC50.

Like-named read-outs stand apart in the source and are kept apart here. Some results are limits rather than exact numbers.

As a reminder, the IC50 is the concentration that inhibits the measured activity by half.

On to `C[C@@H](NC(=O)c1ccccc1)C(=O)N[C@H](Cc1ccccc1)C(=O)C(=O)NCc1ccccn1` [Compound 137, N—((R)-1-(((R)-3,4-dioxo-1-phenyl-4-((pyridin-2-ylmethyl)amino)butan-2-yl)amino)-1-oxopropan-2-yl)benzamide], for which, under “values in nM”, the IC50 worked out at 22.1 ± 7.7 nM.

For `C[C@@H](NC(=O)c1ccccc1F)C(=O)N[C@H](Cc1ccccc1)C(=O)C(=O)NCc1ccccn1` [Compound 138], the IC50 (values in nM) is 48.6 ± 0.4 nM.

For the compound `C[C@@H](NC(=O)c1cccc(F)c1)C(=O)N[C@H](Cc1ccccc1)C(=O)C(=O)NCc1ccccn1` [Compound 139], under “values in nM”, the IC50 amounted to 24.3 ± 2.3 nM.

Turning to `C[C@@H](NC(=O)c1ccc(F)cc1)C(=O)N[C@H](Cc1ccccc1)C(=O)C(=O)NCc1ccccn1` [Compound 140], the IC50 (values in nM) turned out to be 15.5 ± 1 nM.

With `C[C@@H](NC(=O)c1ccccn1)C(=O)N[C@H](Cc1ccccc1)C(=O)C(=O)NCc1ccccn1` [Compound 141], the IC50 (values given in μM) came to 1160 ± 240 nM.

On to `C[C@@H](NC(=O)c1cccnc1)C(=O)N[C@H](Cc1ccccc1)C(=O)C(=O)NCc1ccccn1` [Compound 142], for which, for the setting “values given in μM”, the IC50 worked out at 1210 ± 890 nM.

For the compound `C[C@@H](NC(=O)c1cccc(OC(F)(F)F)c1)C(=O)N[C@H](Cc1ccccc1)C(=O)C(=O)NCc1ccccn1` [Compound 143], under “values in nM”, the IC50 is 16.4 ± 1.5 nM.

On to `C[C@@H](NC(=O)c1ccc(Cl)cc1)C(=O)N[C@H](Cc1ccccc1)C(=O)C(=O)NCc1ccccn1` [Compound 144], for which the IC50 (values in nM) was found to be 19 ± 0.3 nM.

As to `C[C@@H](NC(=O)C1CCCCC1)C(=O)N[C@H](Cc1ccccc1)C(=O)C(=O)NCc1ccccn1` [Compound 146], the IC50 (values in nM) was determined as 12.3 ± 0.2 nM.

`C[C@@H](NC(=O)C1CCC(C(F)(F)F)CC1)C(=O)N[C@H](Cc1ccccc1)C(=O)C(=O)NCc1ccccn1` (stereo partly shown) [Compound 147]: the IC50 (values in nM) was 13 ± 0.7 nM.

As for `C[C@@H](NC(=O)COc1ccc(F)cc1)C(=O)N[C@H](Cc1ccccc1)C(=O)C(=O)NCc1ccccn1` [Compound 148], under “values in nM”, the IC50 came out at 11.7 ± 2.4 nM.

For `C[C@H](C(=O)N[C@H](Cc1ccccc1)C(=O)C(=O)NCc1ccccn1)N(C)C(=O)c1ccc(F)cc1` [Compound 149], for the setting “values in nM”, the IC50 worked out at 36.4 ± 7.4 nM.

`O=C(CNC(=O)[C@@H]1C[C@@H]2[C@H](C1)C2(F)F)N[C@H](Cc1ccccc1)C(=O)C(=O)NCc1ccccn1` [Compound 152]: the IC50 (values in nM) was 18.7 ± 0.6 nM.

Regarding `O=C(CNC(=O)c1cnccn1)N[C@H](Cc1ccccc1)C(=O)C(=O)NCc1ccccn1` [Compound 154], the IC50 (values in nM) was determined as 193 ± 2 nM.

In the case of `CN(CC(=O)N[C@H](Cc1ccccc1)C(=O)C(=O)NCc1ccccn1)C(=O)C1CCC(F)(F)CC1` [Compound 156], where the note is “values in nM”, the IC50 worked out at 33.4 ± 0.9 nM.

With `O=C(CCC1CCC(F)(F)CC1)NC1(C(=O)N[C@H](Cc2ccccc2)C(=O)C(=O)NCc2ccccn2)CC1` [Compound 157], the IC50 (values in nM) came to 12.5 ± 0.5 nM.

As to `O=C(NCc1ccccn1)C(=O)[C@@H](Cc1ccccc1)NC(=O)C1(NC(=O)c2cnccn2)CC1` [Compound 158], the IC50 (values in nM) is 252 ± 9 nM.

As to `O=C(NCc1ccccn1)C(=O)[C@@H](Cc1ccccc1)NC(=O)C1(NC(=O)C2CCC(F)(F)CC2)CC1` [Compound 159], the IC50 (values in nM) turned out to be 21.5 ± 5.7 nM.

With `O=C(CC1CCC(F)(F)CC1)NC1(C(=O)N[C@H](Cc2ccccc2)C(=O)C(=O)NCc2ccccn2)CC1` [Compound 160], the IC50 (values in nM) is 13.5 ± 3.5 nM.

For `O=C(NCc1ccccn1)C(=O)[C@@H](Cc1ccccc1)NC(=O)C1(NC(=O)[C@@H]2C[C@@H]3[C@H](C2)C3(F)F)CC1` [Compound 161], under “values in nM”, the IC50 was 15.3 ± 1.6 nM.

Turning to `O=C(NCc1ccccn1)C(=O)[C@@H](Cc1ccccc1)NC(=O)C1(NC(=O)[C@H]2CC[C@@H](F)CC2)CC1` [Compound 162], the IC50 (values in nM) worked out at 17.5 ± 0.8 nM.

`O=C(NCc1ccccn1)C(=O)[C@@H](Cc1ccccc1)NC(=O)C1(NC(=O)c2cc(Br)cc(OC(F)(F)F)c2)CC1` [Compound 163]: the IC50 (values in nM) was 20.8 ± 0.7 nM.

As for `O=C(Cc1cc(OC(F)(F)F)ccc1F)NC1(C(=O)N[C@H](Cc2ccccc2)C(=O)C(=O)NCc2ccccn2)CC1` [Compound 164], where the note is “values in nM”, the IC50 is 13.2 ± 0.5 nM.

For `O=C(NCc1ccccn1)C(=O)[C@@H](Cc1ccccc1)NC(=O)C1(NC(=O)c2cc(OC(F)(F)F)ccc2F)CC1` [Compound 165], the concentration for half-maximal inhibition (IC50) (values in nM) worked out at 20.3 ± 0.2 nM.

Turning to `O=C(NCc1ccccn1)C(=O)[C@@H](Cc1ccccc1)NC(=O)C1(NC(=O)C2CC23CCC(F)(F)CC3)CC1` (stereo partly shown) [Compound 166], the IC50 (values in nM) was 23.3 ± 0.8 nM.

With `CN(C(=O)C1CCC(F)(F)CC1)C1(C(=O)N[C@H](Cc2ccccc2)C(=O)C(=O)NCc2ccccn2)CC1` [Compound 167], the IC50 (values given in μM) was 3810 ± 170 nM.

`O=C(NCc1ccccn1)C(=O)[C@@H](Cc1ccccc1)NC(=O)C1(NC(=O)C2(F)CCCCC2)CC1` [Compound 168]: the IC50 (values in nM) is 10.7 ± 0.4 nM.

Regarding `O=C(NCc1ccccn1)C(=O)[C@@H](Cc1ccccc1)NC(=O)C1(NC(=O)C2CCC(F)(F)CC2)CC1` [Compound 169], the IC50 (values in nM) stood at 22.6 ± 3.7 nM.

As to `O=C(NCc1ccccn1)C(=O)[C@@H](Cc1ccccc1)NC(=O)C1(NC(=O)c2ccc(F)cc2)CC1` [Compound 170], where the note is “values in nM”, the IC50 was 19.4 ± 0.7 nM.

On to `CC(C)(NC(=O)CCC1CCC(F)(F)CC1)C(=O)N[C@H](Cc1ccccc1)C(=O)C(=O)NCc1ccccn1` [Compound 171], for which the IC50 (values in nM) came to 8.9 ± 0.4 nM.

Turning to `CC(C)(NC(=O)CC1CCC(F)(F)CC1)C(=O)N[C@H](Cc1ccccc1)C(=O)C(=O)NCc1ccccn1` [Compound 173], for the setting “values in nM”, the IC50 stood at 10.3 ± 0.1 nM.

Consider `CC(C)(NC(=O)[C@H]1CC[C@@H](F)CC1)C(=O)N[C@H](Cc1ccccc1)C(=O)C(=O)NCc1ccccn1` [Compound 175], for which the IC50 (values in nM) turned out to be 47.3 ± 2.8 nM.

On to `CC(C)(NC(=O)C1CC12CCC(F)(F)CC2)C(=O)N[C@H](Cc1ccccc1)C(=O)C(=O)NCc1ccccn1` (stereo partly shown) [Compound 176], for which, for the setting “values in nM”, the IC50 came out at 15.9 nM.

`CC(C)(NC(=O)[C@@H](NC(=O)c1cnccn1)C1CCCCC1)C(=O)N[C@H](Cc1ccccc1)C(=O)C(=O)NCc1ccccn1` [Compound 178]: the IC50 (values in nM) turned out to be 17.5 ± 0.5 nM.

Consider `CC(C)(NC(=O)C(=O)c1ccccc1)C(=O)N[C@H](Cc1ccccc1)C(=O)C(=O)NCc1ccccn1` [Compound 179], for which the half-inhibitory concentration (IC50) (values in nM) worked out at 14.5 ± 1.9 nM.

As to `CC(C)(NC(=O)[C@H](NC(=O)c1cnccn1)C1CCCCC1)C(=O)N[C@H](Cc1ccccc1)C(=O)C(=O)NCc1ccccn1` [Compound 180], the IC50 (values in nM) worked out at 31.8 ± 0.9 nM.

Turning to `CC(C)(NC(=O)c1cc(Cl)cc(OC(F)(F)F)c1)C(=O)N[C@H](Cc1ccccc1)C(=O)C(=O)NCc1ccccn1` [Compound 181], under “values in nM”, the IC50 was found to be 16.6 ± 0.3 nM.

With `CC(C)(NC(=O)c1ccc2c(c1)OC(F)(F)O2)C(=O)N[C@H](Cc1ccccc1)C(=O)C(=O)NCc1ccccn1` [Compound 182], where the note is “values in nM”, the IC50 came out at 22.4 ± 0.5 nM.

In the case of `COc1ccc(OC(F)(F)F)cc1C(=O)NC(C)(C)C(=O)N[C@H](Cc1ccccc1)C(=O)C(=O)NCc1ccccn1` [Compound 183], the IC50 (values in nM) came to 21.9 ± 0.3 nM.

With `CC(C)(NC(=O)c1ccc(F)c(OC(F)(F)F)c1)C(=O)N[C@H](Cc1ccccc1)C(=O)C(=O)NCc1ccccn1` [Compound 184], the half-maximal inhibitory concentration (IC50) (values in nM) was 13.3 ± 0.2 nM.

In the case of `CC(C)(NC(=O)C1(F)CCCCC1)C(=O)N[C@H](Cc1ccccc1)C(=O)C(=O)NCc1ccccn1` [Compound 185], where the note is “values in nM”, the IC50 amounted to 9.7 ± 0.7 nM.

For the compound `CC(C)(NC(=O)c1ccc(F)cc1)C(=O)N[C@H](Cc1ccccc1)C(=O)C(=O)NCc1ccccn1` [Compound 186], the IC50 (values in nM) was 18.6 ± 1.1 nM.

As to `O=C(NCc1ccccn1)C(=O)[C@@H](Cc1ccccc1)NC(=O)C1(NC(=O)C2CCC(F)(F)CC2)CCC1` [Compound 187], the IC50 (values in nM) stood at 10.7 ± 0.5 nM.

Consider `O=C(NCc1ccccn1)C(=O)[C@@H](Cc1ccccc1)NC(=O)C1(NC(=O)[C@H]2CC[C@@H](F)CC2)CCC1` [Compound 188], for which the IC50 (values in nM) was found to be 79 ± 8.8 nM.

As for `CN1CCC(C(=O)NC2(C(=O)N[C@H](Cc3ccccc3)C(=O)C(=O)NCc3ccccn3)CCC2)CC1=O` (stereo partly shown) [Compound 189], the IC50 (values given in μM) is greater than 2500 nM.

Take `O=C(NCc1ccccn1)C(=O)[C@@H](Cc1ccccc1)NC(=O)C1(NC(=O)C2CC(=O)N(c3ccccc3)C2)CCC1` (stereo partly shown) [Compound 190]: the IC50 (values in nM) came out at 29.6 nM.

With `O=C(NCc1ccccn1)C(=O)[C@@H](Cc1ccccc1)NC(=O)C1(NC(=O)C2CCOCC2)CCC1` [Compound 191], the IC50 (values in nM) is 73 ± 4.5 nM.

For `CC1(C)C(C(=O)NC2(C(=O)N[C@H](Cc3ccccc3)C(=O)C(=O)NCc3ccccn3)CCC2)C1(C)C` [Compound 192], under “values in nM”, the IC50 is 25.4 ± 0.9 nM.

Consider `O=C(NCc1ccccn1)C(=O)[C@@H](Cc1ccccc1)NC(=O)C1(NC(=O)C2CCCC(F)(F)C2)CCC1` (stereo partly shown) [Compound 193], for which the IC50 (values in nM) worked out at 16.7 ± 0.4 nM.

For `CN(C(=O)C1CCC(F)(F)CC1)C1(C(=O)N[C@H](Cc2ccccc2)C(=O)C(=O)NCc2ccccn2)CCC1` [Compound 194], the IC50 (values in nM) came to 387 ± 30 nM.

`O=C(NCc1ccccn1)C(=O)[C@@H](Cc1ccccc1)NC(=O)C1(NC(=O)C2CCCCCC2)CCC1` [Compound 195]: under “values in nM”, the IC50 came to 30.8 ± 0.1 nM.

For the compound `O=C(CC12CC3CC(CC(C3)C1)C2)NC1(C(=O)N[C@H](Cc2ccccc2)C(=O)C(=O)NCc2ccccn2)CCC1` [Compound 196], the IC50 (values in nM) stood at 14.5 ± 0.1 nM.

Consider `O=C(CC1CCCC1)NC1(C(=O)N[C@H](Cc2ccccc2)C(=O)C(=O)NCc2ccccn2)CCC1` [Compound 197], for which the IC50 (values in nM) came to 13.8 ± 0.8 nM.

Turning to `O=C(NCc1ccccn1)C(=O)[C@@H](Cc1ccccc1)NC(=O)C1(NC(=O)c2cc(C(F)(F)F)[nH]n2)CCC1` [Compound 198], the IC50 (values in nM) came to 18.1 ± 2.7 nM.

Consider `O=C(NCc1ccccn1)C(=O)[C@@H](Cc1ccccc1)NC(=O)C1(NC(=O)C23CC4CC(CC(O)(C4)C2)C3)CCC1` [Compound 199], for which the IC50 (values in nM) came to 52.7 ± 1 nM.

In the case of `O=C(NCc1ccccn1)C(=O)[C@@H](Cc1ccccc1)NC(=O)C1(NC(=O)c2[nH]nc3c2COCC3)CCC1` [Compound 200], the IC50 (values in nM) is 219.3 ± 0.6 nM.

On to `O=C(NCc1ccccn1)C(=O)[C@@H](Cc1ccccc1)NC(=O)C1(NC(=O)[C@H]2CC[C@H](c3ccc(Cl)cc3)CC2)CCC1` [Compound 201], for which, where the note is “values in nM”, the IC50 was 653.4 ± 4.1 nM.

On to `O=C(NCc1ccccn1)C(=O)[C@@H](Cc1ccccc1)NC(=O)C1(NC(=O)[C@@H]2C[C@@H]3[C@H](C2)C3(F)F)CCC1` [Compound 202], for which, where the note is “values in nM”, the IC50 was determined as 17.4 ± 1.2 nM.
